According to paper PMC8421423, “Cellular model system to dissect the isoform-selectivity of Akt inhibitors” (Nature Communications, 2021):
Several values for one entry are separate records, joined by “and”; a condition that tells them apart may be missing. Identical values can stand only once. Like-named read-outs stand apart in the source and are kept apart here.

Experiments:
Ba/F3^myr-Akt3 cells = assay: CellTiter-Glo cell viability assay; details: for cell viability: CTG
Ba/F3^myr-Akt1 cells = assay: CellTiter-Glo cell viability assay; details: for cell viability: CTG
Ba/F3^myr-Akt2 cells = assay: CellTiter-Glo cell viability assay; details: for cell viability: CTG
pAkt2 = assay: Western blot analysis, PANC1 cells; type: cell-based, human; details: PANC1, 24-h treatment
Experimental: Cells were seeded into six-well tissue culture plates (Sarstedt) (BaF3 myr-Akt1/2/3: 10^6 cells/well, PANC1: 250.000 cells/well). […] Cell lysis was initiated by addition of 100 μL RIPA buffer (Cell Signaling Technology) per well supplemented with phosphatase and protease inhibitor cocktails (Sigma) followed by incubation on ice for 20 min. Cells were then harvested by scraping (PANC1) or centrifugation (BaF3). Whole cell lysates were cleared by centrifugation at 14,000×g/4 °C for 10 min and transferred into fresh, pre-cooled microcentrifuge tubes. Protein concentrations were determined using the Pierce BCA protein assay (Thermo) as per manufacturer’s instructions. Equal amounts of protein were separated by SDS-PAGE and transferred to Immobilon-FL PVDF membranes (Merck Millipore) using Pierce™ 1-step transfer buffer (Thermo) and the Pierce™ Power Blotter (Thermo). Membranes were washed for 5 min with ddH2O, blocked with Intercept®Blocking Buffer TBS (Li-Cor) for 1 h at room temperature, and then incubated with primary antibodies diluted in Intercept®Blocking Buffer TBS overnight at 4 °C with gentle agitation. On the next day, the membranes were washed three times with TBS-T (50 mM Tris, 150 mM NaCl, 0.05 % Tween 20, pH 7.4) for 5 min before being incubated with secondary antibodies diluted in Intercept®Blocking Buffer TBS for 1 h at room temperature with gentle agitation. Finally, the membranes were washed three times for 5 min with TBS-T and then scanned using an Odyssey®CLx imaging system (Li-Cor).

Akt3 [1] = target: T1, Akt3 (Homo sapiens, UniProt Q9Y243); assay: STK HTRF KinEASE activity-based assay (IC50)
T1 sequence (Q9Y243 whole entry): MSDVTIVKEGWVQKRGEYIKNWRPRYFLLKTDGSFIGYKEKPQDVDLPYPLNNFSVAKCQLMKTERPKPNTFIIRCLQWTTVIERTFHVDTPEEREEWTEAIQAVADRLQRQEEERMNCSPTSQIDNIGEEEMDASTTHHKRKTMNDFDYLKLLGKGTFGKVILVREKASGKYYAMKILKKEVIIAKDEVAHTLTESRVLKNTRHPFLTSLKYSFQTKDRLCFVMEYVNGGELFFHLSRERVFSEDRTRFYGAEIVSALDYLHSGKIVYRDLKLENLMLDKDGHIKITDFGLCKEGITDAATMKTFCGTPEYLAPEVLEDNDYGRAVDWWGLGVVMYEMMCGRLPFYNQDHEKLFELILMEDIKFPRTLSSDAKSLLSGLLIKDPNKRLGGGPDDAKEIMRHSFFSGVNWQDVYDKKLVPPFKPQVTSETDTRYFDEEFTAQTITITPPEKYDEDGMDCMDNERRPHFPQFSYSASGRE

Akt1 [2] = target: T2, Akt1 (Homo sapiens, UniProt P31749); assay: STK HTRF KinEASE activity-based assay (IC50)
T2 sequence (P31749 whole entry): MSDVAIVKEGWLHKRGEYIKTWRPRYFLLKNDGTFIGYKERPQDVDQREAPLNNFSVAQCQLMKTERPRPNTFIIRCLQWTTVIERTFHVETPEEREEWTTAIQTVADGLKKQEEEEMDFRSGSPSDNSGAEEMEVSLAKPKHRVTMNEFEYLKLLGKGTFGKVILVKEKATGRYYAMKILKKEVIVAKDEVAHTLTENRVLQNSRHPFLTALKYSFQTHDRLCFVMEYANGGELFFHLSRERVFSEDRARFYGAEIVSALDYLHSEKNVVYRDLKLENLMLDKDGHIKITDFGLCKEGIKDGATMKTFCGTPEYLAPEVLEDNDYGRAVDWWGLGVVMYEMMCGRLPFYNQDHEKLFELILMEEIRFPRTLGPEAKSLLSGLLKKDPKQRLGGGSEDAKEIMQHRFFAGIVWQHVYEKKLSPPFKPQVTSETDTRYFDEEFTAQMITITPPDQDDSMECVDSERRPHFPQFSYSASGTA

Akt3 [3] = target: T1, Akt3; assay: Cellular thermal shift assay (CETSA) in PANC1 cells; type: cell-based; parameters: purchased ProQinase #1578-0000-1; details: CETSA PANC1, 1 µM
Experimental: (§1) Cells were seeded into 100 mm tissue culture plates (Sarstedt) (PANC1: 10^6 cells). After 24 h incubation, cells were treated with 1 µM of inhibitors or DMSO and were incubated for 4.5 h. Cells were washed twice with ice-cold PBS and then suspended in 1 mL PBS. Cells were collected and separated into equal volumes (100 µL). The aliquots were treated individually with different temperatures for 3 min, followed by a 3 min incubation at room temperature. Cell lysis was initiated by adding 100 µL RIPA buffer and 2 freeze-thaw cycles in liquid nitrogen. The lysates were centrifuged at 21,130×g for 20 min at room temperature. The supernatants were transferred into fresh, pre-cooled microcentrifuge tubes, and analyzed by western blot analysis as described above.

Akt2 [4] = target: T3, Akt2 (Homo sapiens, UniProt P31751); assay: as above; type: cell-based; parameters: purchased Thermo Fisher Scientific #PV3184; details: for tAkt2 %: CETSA PANC1, 1 µM
T3 sequence (P31751 whole entry): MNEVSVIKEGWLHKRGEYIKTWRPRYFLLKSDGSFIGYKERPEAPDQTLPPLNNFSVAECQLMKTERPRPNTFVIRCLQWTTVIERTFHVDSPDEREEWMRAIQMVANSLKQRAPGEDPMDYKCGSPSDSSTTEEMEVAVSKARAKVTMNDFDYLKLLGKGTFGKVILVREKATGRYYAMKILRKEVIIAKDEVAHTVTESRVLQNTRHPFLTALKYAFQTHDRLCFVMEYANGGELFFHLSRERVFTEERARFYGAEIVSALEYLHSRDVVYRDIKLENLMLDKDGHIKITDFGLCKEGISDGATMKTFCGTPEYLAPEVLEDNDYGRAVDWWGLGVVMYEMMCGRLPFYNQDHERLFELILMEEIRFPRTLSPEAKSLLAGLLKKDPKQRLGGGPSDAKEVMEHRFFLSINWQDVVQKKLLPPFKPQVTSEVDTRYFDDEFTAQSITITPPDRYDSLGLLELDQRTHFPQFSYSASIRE
Experimental: as §1

Akt1 [5] = target: T2, Akt1; assay: as above; type: cell-based; parameters: purchased ProQinase #1379-0000-2; details: CETSA PANC1, 1 µM
Experimental: as §1

Akt2 [6] = target: T3, Akt2; assay: STK HTRF KinEASE activity-based assay (IC50)
parental Ba/F3 cells = assay: CellTiter-Glo cell viability assay; type: cell-based, murine; details: for cell viability: CTG, parental
Experimental: (§2) On day 0, cells were plated into white 384-well cell culture plates (Greiner Bio-One) using a Multidrop reagent dispenser (Thermo Fisher Scientific) at cell numbers that ensure linear and optimal luminescent signal intensity (Ba/F3myr-Akt1: 600 cells/well, Ba/F3myr-Akt2: 800 cells/well, Ba/F3myr-Akt3: 800 cells/well). […] Cell viability was analyzed on day 4 using the CellTiter-Glo Assay (Promega) as per the manufacturer’s instructions. […] All experimental points were measured in duplicates for each plate and were replicated in at least three plates.

[7] = CellTiter-Glo cell viability assay; type: cell-based, murine; details: mouse, parental Ba/F3 cells, CTG, parental, single replicates
Experimental: as §2

[8] = cell viability assay Ba/F3 myr-Akt cells, log units

C=CC(=O)Nc1ccc2[nH]c(=O)n(C3CCN(Cc4ccc(-c5ncc(Cc6cn[nH]c6)cc5-c5ccccc5)cc4)CC3)c2c1 [compound 14]
cell viability (Ba/F3^myr-Akt3 cells; myr-Akt3, 0.1 nM, single replicates, 0.0001 µM): 114.7 % of control and 87.0 % of control and 100.0 % of control
cell viability (Ba/F3^myr-Akt3 cells; myr-Akt3, 5000 nM, single replicates, 5 µM): 35.1 % of control and 52.3 % of control and 67.7 % of control
EC50 (Ba/F3^myr-Akt3 cells; Mus musculus, read-out: CTG BaF3myr-Akt3, Mean, mean of replicates): 4470 nM
EC50 (Ba/F3^myr-Akt3 cells; Mus musculus, read-out: CTG BaF3myr-Akt3, individual determinations, single replicates): 4320 nM
Log ratio EC50 [Akt] / EC50 [Akt], Akt3 / Akt2 (Ba/F3^myr-Akt3 cells; [8]): -0.93
EC50 (Ba/F3^myr-Akt3 cells; read-out: CTG BaF3myr-Akt3, individual determinations, single replicates): 4620 nM and 4470 nM
cell viability (Ba/F3^myr-Akt1 cells; myr-Akt1, 0.1 nM, single replicates, 0.0001 µM): 103.7 % of control and 102.7 % of control
cell viability (Ba/F3^myr-Akt1 cells; myr-Akt1, 5000 nM, single replicates, 5 µM): 79.7 % of control and 82.2 % of control
EC50 (Ba/F3^myr-Akt1 cells; Mus musculus, read-out: CTG BaF3myr-Akt1, Mean, mean of replicates): 7560 nM
EC50 (Ba/F3^myr-Akt1 cells; Mus musculus, read-out: CTG BaF3myr-Akt1, individual determinations, single replicates): 6920 nM
viability at 0.0001 µM (Ba/F3^myr-Akt1 cells; Mus musculus, read-out: cell viability, CTG, myr-Akt1, 0.1 nM, single replicates): 100%
viability at 5 µM (Ba/F3^myr-Akt1 cells; Mus musculus, read-out: cell viability, CTG, myr-Akt1, 5000 nM, single replicates): 71.9%
Log ratio EC50 [Akt] / EC50 [Akt], Akt1 / Akt2 (Ba/F3^myr-Akt1 cells; [8]): 1.15
EC50 (Ba/F3^myr-Akt1 cells; read-out: CTG BaF3myr-Akt1, individual determinations, single replicates): 7890 nM and 7860 nM
cell viability (Ba/F3^myr-Akt2 cells; myr-Akt2, 0.1 nM, single replicates, 0.0001 µM): 101.1 % of control and 98.7 % of control
cell viability (Ba/F3^myr-Akt2 cells; myr-Akt2, 5000 nM, single replicates, 5 µM): 0.2 % of control and 0.55 % of control and 2.5 % of control
EC50 (Ba/F3^myr-Akt2 cells; Mus musculus, read-out: CTG BaF3myr-Akt2, Mean, mean of replicates): 529 nM
viability at 0.0001 µM (Ba/F3^myr-Akt2 cells; Mus musculus, read-out: cell viability, CTG, myr-Akt2, 0.1 nM, single replicates): 104%
EC50 (Ba/F3^myr-Akt2 cells; read-out: CTG BaF3myr-Akt2, individual determinations, single replicates): 932 nM and 277 nM and 378 nM
pAkt2 level (immunoblot) (pAkt2): efficient downregulation of Akt2 phosphorylation
IC50 (Akt3 [1]; HTRF IC50 Akt3, Mean, mean of replicates): 356 nM
IC50 (Akt3 [1]; HTRF IC50 Akt3, individual determinations, single replicates): 231 nM and 426 nM and 410 nM
IC50 (Akt3 [1]; IC50 Akt3, HTRF, ATP at KM, 1 h preincubation): 356 ± 88 nM
IC50 (Akt1 [2]; HTRF IC50 Akt1, Mean, mean of replicates): 527 nM
IC50 (Akt1 [2]; HTRF IC50 Akt1, individual determinations, single replicates): 543 nM and 509 nM and 531 nM
IC50 (Akt1 [2]; IC50 Akt1, HTRF, ATP at KM, 1 h preincubation): 527 ± 14 nM
Log ratio IC50 [Akt] / IC50 [Akt], Akt1 / Akt2 (Akt1 [2]; biochemical activity based assay, log units): 1.35
tAkt3 % (Akt3 [3]; temperature 39.9): 100.00%
tAkt3 % (Akt3 [3]; temperature 43.5): 108.88%
tAkt3 % (Akt3 [3]; temperature 48.4): 31.40%
tAkt3 % (Akt3 [3]; temperature 53.8): 28.60%
tAkt3 % (Akt3 [3]; temperature 58.1): 24.86%
tAkt3 % (Akt3 [3]; temperature 61.4): 22.71%
tAkt3 % (Akt3 [3]; temperature 65.6): 8.41%
tAkt3 % (Akt3 [3]; temperature 70.9): 4.62%
tAkt3 % (Akt3 [3]; temperature 76): 1.45%
tAkt3 % (Akt3 [3]; temperature 79.9): 0.00%
tAkt2 % (Akt2 [4]; temperature 39.9): 100.00%
tAkt2 % (Akt2 [4]; temperature 43.5): 102.39%
tAkt2 % (Akt2 [4]; temperature 48.4): 91.99%
tAkt2 % (Akt2 [4]; temperature 53.8): 80.16%
tAkt2 % (Akt2 [4]; temperature 58.1): 72.88%
tAkt2 % (Akt2 [4]; temperature 61.4): 43.24%
tAkt2 % (Akt2 [4]; temperature 65.6): 13.13%
tAkt2 % (Akt2 [4]; temperature 70.9): 8.83%
tAkt2 % (Akt2 [4]; temperature 76): 2.38%
tAkt2 % (Akt2 [4]; temperature 79.9): 0.00%
thermal stabilization of Akt2 (CETSA, in words) (Akt2 [4]; PANC1, 1 µM): significant thermal stabilization of Akt2
tAkt1 % (Akt1 [5]; temperature 39.9): 100.00%
tAkt1 % (Akt1 [5]; temperature 43.5): 52.07%
tAkt1 % (Akt1 [5]; temperature 48.4): 40.09%
tAkt1 % (Akt1 [5]; temperature 53.8): 35.60%
tAkt1 % (Akt1 [5]; temperature 58.1): 20.87%
tAkt1 % (Akt1 [5]; temperature 61.4): 22.87%
tAkt1 % (Akt1 [5]; temperature 65.6): 16.43%
tAkt1 % (Akt1 [5]; temperature 70.9): 3.87%
tAkt1 % (Akt1 [5]; temperature 76): 1.25%
tAkt1 % (Akt1 [5]; temperature 79.9): 0.00%
IC50 (Akt2 [6]; HTRF IC50 Akt2, Mean, mean of replicates): 23.9 nM
IC50 (Akt2 [6]; HTRF IC50 Akt2, individual determinations, single replicates): 21.3 nM and 30 nM and 19.2 nM and 20.5 nM
IC50 (Akt2 [6]; IC50 Akt2, HTRF, ATP at KM, 1 h preincubation): 23 ± 4 nM
cell viability (parental Ba/F3 cells; 0.1 nM, single replicates, 0.0001 µM): 100.0 % of control and 99.0 % of control
cell viability (parental Ba/F3 cells; 5000 nM, single replicates, 5 µM): 99.0 % of control and 97.0 % of control
EC50 (parental Ba/F3 cells; Mus musculus, BaF3, parental cells, mean of replicates, read-out: CTG BaF3, Mean): 8640 nM
EC50 (parental Ba/F3 cells; Mus musculus, BaF3, parental cells, single replicates, read-out: CTG BaF3, individual determinations): 8400 nM
EC50 (parental Ba/F3 cells; parental cells, single replicates, read-out: CTG BaF3, individual determinations): 7670 nM and 9860 nM
viability at 3 days, 0.0001 µM ([7]; 0.1 nM, read-out: cell viability): 101%
viability at 3 days, 5 µM ([7]; 5000 nM): 105%
